From patent publication US10316017B2, “COT modulators and methods of use thereof” (Gilead Sciences, Inc., priority 2015, dated 2019)

Key:
[1] = test system: TNFα production in LPS-stimulated human monocytes; experiment: Cot Monocyte TNFα Cell Based Assay; conditions: Homo sapiens, Monocyte, TNFα in LPS-stimulated human monocytes; read-out: EC50 TNF
How it was run: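 5,000 cells/well; cmpd 1 h, 37 °C, 0.5% DMSO final; LPS 50 pg/ml, 4 h, 37 °C; media TNFα by HTRF sandwich (cryptate/XL665), RT overnight; % control vs unstimulated/stimulated wells.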

[2] = biological target: T1, human Cot catalytic domain (30-397 amino acids) (Homo sapiens, UniProt P41279); experiment: High Throughput Cot Biochemical Assay (KinEASE TR-FRET); conditions: Cot biochemical HTRF (KinEASE TR-FRET) assay; read-out: IC50 HTRF
T1 construct: Purified recombinant human Cot catalytic domain (30-397 amino acids) was purchased from Cama Biosciences; purchased Cama Biosciences (so in the source)
How it was run: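 First, purified human Cot (aa 30-397) at 5 nM phosphorylates an XL665-labeled STK3 peptide (1 μM) at 400 μM ATP, pH 7.0, 0.1% DMSO. Then a europium-conjugated phospho-specific antibody binds the product, giving the TR-FRET signal.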

T1 sequence (P41279 30-397): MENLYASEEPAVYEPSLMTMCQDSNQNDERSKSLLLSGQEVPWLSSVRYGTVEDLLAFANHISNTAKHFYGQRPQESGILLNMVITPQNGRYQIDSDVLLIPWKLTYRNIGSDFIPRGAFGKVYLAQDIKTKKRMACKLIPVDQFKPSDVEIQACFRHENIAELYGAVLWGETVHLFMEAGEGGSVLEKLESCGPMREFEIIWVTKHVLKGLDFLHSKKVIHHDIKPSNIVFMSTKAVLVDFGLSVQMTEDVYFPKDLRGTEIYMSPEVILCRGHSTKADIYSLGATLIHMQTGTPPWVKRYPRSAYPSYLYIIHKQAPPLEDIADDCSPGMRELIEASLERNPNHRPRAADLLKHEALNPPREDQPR

| EC50 [1] [nM] | IC50 [2] [nM] | Compound |
| --- | --- | --- |
| 3180 | 189 | CC(C)(C)N1CCC(n2cc(C(Nc3cc(Cl)c4ncc(C#N)c(NC5CCC(O)CC5)c4c3)c3ccccc3)nn2)CC1 [Example 597, 6-(((S)-(1-(1-(tert-butyl)piperidin-4-yl)-1H-1,2,3-triazol-4-yl)(phenyl)methyl)amino)-8-chloro-4-(((1r,4S)-4-hydroxycyclohexyl)amino) quinoline-3-carbonitrile] |
| 418 | 4 | CC[C@@H](Nc1c(C#N)cnc2c(Cl)cc(N[C@@H](c3cccc(C(=O)N(C)C)c3)c3c[nH]nn3)cc12)c1ccccc1 [Example 598, 3-((S)-((8-chloro-3-cyano-4-(((R)-1-phenylpropyl)amino)quinolin-6-yl)amino)(1H-1,2,3-triazol-4-yl)methyl)-N,N-dimethylbenzamide] |
| 134 | 3 | CC[C@@H](Nc1c(C#N)cnc2c(Cl)cc(N[C@@H](c3cccc(C(=O)N(C)C)c3)c3cn(C(C)C)nn3)cc12)c1ccccc1 [Example 599, 3-((S)-((8-chloro-3-cyano-4-(((R)-1-phenylpropyl)amino)quinolin-6-yl)amino)(1-isopropyl-1H-1,2,3-triazol-4-yl)methyl)-N,N-dimethylbenzamide] |
| 78 | 2 | CC[C@@H](Nc1c(C#N)cnc2c(Cl)cc(N[C@@H](c3cccc(C(=O)N(C)C)c3)c3cn(C4CCN(C(C)(C)C)CC4)nn3)cc12)c1ccccc1 [Example 600, 3-((S)-(1-(1-(tert-butyl)piperidin-4-yl)-1H-1,2,3-triazol-4-yl)((8-chloro-3-cyano-4-(((R)-1-phenylpropyl)amino)quinolin-6-yl)amino)methyl)-N,N-dimethylbenzamide] |
| 2060 | 64 | CC(C)(C)N1CCC(n2cc([C@@H](Nc3cc(Cl)c4ncc(C#N)c(NCC5CCOCC5)c4c3)c3ccccc3)nn2)CC1 [Example 601, (S)-6-(((1-(1-(tert-butyl)piperidin-4-yl)-1H-1,2,3-triazol-4-yl)(phenyl)methyl)amino)-8-chloro-4-(((tetrahydro-2H-pyran-4-yl)methyl)amino)quinoline-3-carbonitrile] |
| 3050 | 77 | CC(C)(C)N1CCC(n2cc([C@@H](Nc3cc(Cl)c4ncc(C#N)c(NCC5CCCCC5)c4c3)c3ccccc3)nn2)CC1 [Example 602, (S)-6-(((1-(1-(tert-butyl)piperidin-4-yl)-1H-1,2,3-triazol-4-yl)(phenyl)methyl)amino)-8-chloro-4-chloro-4-((cyclohexylmethyl)amino) quinoline-3-carbonitrile] |
| 561 | 61 | CC(C)(C)N1CCC(n2cc([C@@H](Nc3cc(Cl)c4ncc(C#N)c(NN5CCCCC5)c4c3)c3ccccc3)nn2)CC1 [Example 603, (S)-6-(((1-(1-(tert-butyl)piperidin-4-yl)-1H-1,2,3-triazol-4-yl)(phenyl)methyl)amino)-8-chloro-4-(piperidin-1-ylamino)quinoline-3-carbonitrile] |
| 3040 | 156 | CC(C)(C)N1CCC(n2cc([C@@H](Nc3cc(Cl)c4ncc(C#N)c(NN5CCCCCC5)c4c3)c3ccccc3)nn2)CC1 [Example 604, (S)-4-(azepan-1-ylamino)-6-(((1-(1-(tert-butyl)piperidin-4-yl)-1H-1,2,3-triazol-4-yl)(phenyl)methyl)amino)-8-chloroquinoline-3-carbonitrile] |
| 375 | 41 | N#Cc1cnc2c(Cl)cc(N[C@@H](c3ccccc3)c3cn(CC(O)C(F)(F)F)nn3)cc2c1Nc1ccc(F)c(Cl)c1 (stereo partly drawn) [Example 605, 8-chloro-4-((3-chloro-4-fluorophenyl)amino)-6-(((1S)-phenyl(1-(3,3,3-trifluoro-2-hydroxypropyl)-1H-1,2,3-triazol-4-yl)methyl)amino)quinoline-3-carbonitrile] |
